Where “and” joins values, the source holds several entries; their conditions need not be identical. Identical values can stand only once.
Tested on: 521955-158-R2-J5-PDC complex spheroid viability
Test: Anticancer human tumor 521955-158-R2-J5-PDC patient-derived pancreatic carcinoma cell line growth inhibition
Conditions: for IC50: curve of first compound; for viability, T/C: stronger effect = lower value
Method in brief: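 Multicellular complex spheroids of tumor cells with human endothelial cells (HUVEC) and mesenchymal stem cells; the LSD1 inhibitor iadademstat was combined with standard-of-care or investigational agents. Top concentration at or near clinical Cmax, half-log dilutions; final DMSO ≤0.25%.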

[1] = second compound 0.1 µM, first compound 0.00949 µM
[2] = second compound 0.1 µM, first compound 0.03 µM
[3] = second compound 0.1 µM, first compound 0.0949 µM
[4] = second compound 0.1 µM, first compound 0.3 µM
[5] = second compound 0.1 µM, first compound 0.949 µM
[6] = second compound 0.1 µM, first compound 3 µM
[7] = second compound 0.316 µM, first compound 0.00949 µM
[8] = second compound 0.316 µM, first compound 0.03 µM
[9] = second compound 0.316 µM, first compound 0.0949 µM
[10] = second compound 0.316 µM, first compound 0.3 µM
[11] = second compound 0.316 µM, first compound 0.949 µM
[12] = second compound 0.316 µM, first compound 3 µM
[13] = second compound 1 µM, first compound 0.00949 µM
[14] = second compound 1 µM, first compound 0.03 µM
[15] = second compound 1 µM, first compound 0.0949 µM
[16] = second compound 1 µM, first compound 0.3 µM
[17] = second compound 1 µM, first compound 0.949 µM
[18] = second compound 1 µM, first compound 3 µM
[19] = second compound 3.16 µM, first compound 0.00949 µM
[20] = second compound 3.16 µM, first compound 0.03 µM
[21] = second compound 3.16 µM, first compound 0.0949 µM
[22] = second compound 3.16 µM, first compound 0.3 µM
[23] = second compound 3.16 µM, first compound 0.949 µM
[24] = second compound 3.16 µM, first compound 3 µM
[25] = second compound 10 µM, first compound 0.00949 µM
[26] = second compound 10 µM, first compound 0.03 µM
[27] = second compound 10 µM, first compound 0.0949 µM
[28] = second compound 10 µM, first compound 0.3 µM
[29] = second compound 10 µM, first compound 0.949 µM
[30] = second compound 10 µM, first compound 3 µM
[31] = second compound 0.1 µM, first compound 0.0316 µM
[32] = second compound 0.1 µM, first compound 0.1 µM
[33] = second compound 0.1 µM, first compound 0.316 µM
[34] = second compound 0.1 µM, first compound 1 µM
[35] = second compound 0.1 µM, first compound 3.16 µM
[36] = second compound 0.1 µM, first compound 10 µM
[37] = second compound 0.316 µM, first compound 0.0316 µM
[38] = second compound 0.316 µM, first compound 0.1 µM
[39] = second compound 0.316 µM, first compound 0.316 µM
[40] = second compound 0.316 µM, first compound 1 µM
[41] = second compound 0.316 µM, first compound 3.16 µM
[42] = second compound 0.316 µM, first compound 10 µM
[43] = second compound 1 µM, first compound 0.0316 µM
[44] = second compound 1 µM, first compound 0.1 µM
[45] = second compound 1 µM, first compound 0.316 µM
[46] = second compound 1 µM, first compound 1 µM
[47] = second compound 1 µM, first compound 3.16 µM
[48] = second compound 1 µM, first compound 10 µM
[49] = second compound 3.16 µM, first compound 0.0316 µM
[50] = second compound 3.16 µM, first compound 0.1 µM
[51] = second compound 3.16 µM, first compound 0.316 µM
[52] = second compound 3.16 µM, first compound 1 µM
[53] = second compound 3.16 µM, first compound 3.16 µM
[54] = second compound 3.16 µM, first compound 10 µM
[55] = second compound 10 µM, first compound 0.0316 µM
[56] = second compound 10 µM, first compound 0.1 µM
[57] = second compound 10 µM, first compound 0.316 µM
[58] = second compound 10 µM, first compound 1 µM
[59] = second compound 10 µM, first compound 3.16 µM
[60] = second compound 10 µM, first compound 10 µM
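Further: spheroids exposed to agents for seven days.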
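Wherever viability, T/C is given: percent of DMSO vehicle control luminescence viability.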

COc1cc(C2c3cc4c(cc3C(OC3OC5COC(C)OC5C(O)C3O)C3COC(=O)C23)OCO4)cc(OC)c1O (stereo unspecified) + NC1CC1c1ccc(-c2cccc(O)c2)cc1
IC50 (second compound 0.1 µM): 198 nM
IC50 (second compound 0.316 µM): 227 nM
IC50 (second compound 1 µM): 249 nM
IC50 (second compound 3.16 µM): 181 nM
IC50 (second compound 10 µM): 265 nM
viability, T/C [1]: 86.6%
viability, T/C [2]: 94.8%
viability, T/C [3]: 66.2%
viability, T/C [4]: 39.9%
viability, T/C [5]: 23%
viability, T/C [6]: 15.3%
viability, T/C [7]: 87.3%
viability, T/C [8]: 83.6%
viability, T/C [9]: 66.3%
viability, T/C [10]: 44.6%
viability, T/C [11]: 27.8%
viability, T/C [12]: 19.2%
viability, T/C [13]: 84.2%
viability, T/C [14]: 87.2%
viability, T/C [15]: 64%
viability, T/C [16]: 47.1%
viability, T/C [17]: 30.9%
viability, T/C [18]: 20.2%
viability, T/C [19]: 89.4%
viability, T/C [20]: 88.5%
viability, T/C [21]: 53.8%
viability, T/C [22]: 44.4%
viability, T/C [23]: 30.3%
viability, T/C [24]: 19.8%
viability, T/C [25]: 95.9%
viability, T/C [26]: 83.6%
viability, T/C [27]: 67.5%
viability, T/C [28]: 49.8%
viability, T/C [29]: 30.6%
viability, T/C [30]: 27%

O=C(C=Cn1cnc(-c2cc(C(F)(F)F)cc(C(F)(F)F)c2)n1)NNc1cnccn1
viability, T/C (compound 0.00316 µM): 44% and 57%
viability, T/C (compound 0.01 µM): 36.4% and 61.1%
viability, T/C (compound 0.0316 µM): 40.2% and 68%
viability, T/C (compound 0.1 µM): 31.9% and 73.8%
viability, T/C (compound 0.316 µM): 15.7% and 36.3%
viability, T/C (compound 1 µM): 11.8% and 16.6%

O=C(c1cc(Cc2n[nH]c(=O)c3ccccc23)ccc1F)N1CCN(C(=O)C2CC2)CC1 + NC1CCC(NC2CC2c2ccccc2)CC1
IC50 (second compound 0.1 µM): > 10000 nM
IC50 (second compound 0.316 µM): > 10000 nM
IC50 (second compound 1 µM): > 10000 nM
IC50 (second compound 3.16 µM): > 10000 nM
IC50 (second compound 10 µM): > 10000 nM
viability, T/C [31]: 109%
viability, T/C [32]: 107%
viability, T/C [33]: 100%
viability, T/C [34]: 98.6%
viability, T/C [35]: 89.3%
viability, T/C [36]: 56.6%
viability, T/C [37]: 106%
viability, T/C [38]: 108%
viability, T/C [39]: 103%
viability, T/C [40]: 102%
viability, T/C [41]: 89%
viability, T/C [42]: 57.8%
viability, T/C [43]: 97.9%
viability, T/C [44]: 99.6%
viability, T/C [45]: 99.4%
viability, T/C [46]: 94.8%
viability, T/C [47]: 97.1%
viability, T/C [48]: 54.9%
viability, T/C [49]: 98.4%
viability, T/C [50]: 101%
viability, T/C [51]: 99.6%
viability, T/C [52]: 102%
viability, T/C [53]: 86.8%
viability, T/C [54]: 59.5%
viability, T/C [55]: 102%
viability, T/C [56]: 105%
viability, T/C [57]: 99%
viability, T/C [58]: 95.3%
viability, T/C [59]: 81.9%
viability, T/C [60]: 55.9%

O=C(C=Cc1cccc(S(=O)(=O)Nc2ccccc2)c1)NO + NC1CC1c1ccc(-c2cccc(O)c2)cc1
IC50 (second compound 0.1 µM): 459 nM
IC50 (second compound 0.316 µM): 438 nM
IC50 (second compound 1 µM): 446 nM
IC50 (second compound 3.16 µM): 347 nM
IC50 (second compound 10 µM): 356 nM
viability, T/C [1]: 103%
viability, T/C [2]: 113%
viability, T/C [3]: 82.4%
viability, T/C [4]: 62.8%
viability, T/C [5]: 30.1%
viability, T/C [6]: 0.42%
viability, T/C [7]: 94.1%
viability, T/C [8]: 102%
viability, T/C [9]: 91.1%
viability, T/C [10]: 61.8%
viability, T/C [11]: 23.8%
viability, T/C [12]: 0.53%
viability, T/C [13]: 97.7%
viability, T/C [14]: 107%
viability, T/C [15]: 87.8%
viability, T/C [16]: 65.8%
viability, T/C [17]: 22.1%
viability, T/C [18]: 1.1%
viability, T/C [19]: 112%
viability, T/C [20]: 101%
viability, T/C [21]: 89.1%
viability, T/C [22]: 55.5%
viability, T/C [23]: 17.1%
viability, T/C [24]: 0.23%
viability, T/C [25]: 112%
viability, T/C [26]: 112%
viability, T/C [27]: 83.7%
viability, T/C [28]: 61%
viability, T/C [29]: 14.7%
viability, T/C [30]: 0.31%

CC1COCCN1c1cc(C2(S(C)(=N)=O)CC2)nc(-c2ccnc3[nH]ccc23)n1 (stereo unspecified) + NC1CCC(NC2CC2c2ccccc2)CC1
IC50 (second compound 0.1 µM): 528 nM
IC50 (second compound 0.316 µM): 505 nM
IC50 (second compound 1 µM): 531 nM
IC50 (second compound 3.16 µM): 500 nM
IC50 (second compound 10 µM): 446 nM
viability, T/C [31]: 104%
viability, T/C [32]: 87.7%
viability, T/C [33]: 76.6%
viability, T/C [34]: 16.5%
viability, T/C [35]: 12.6%
viability, T/C [36]: 16.9%
viability, T/C [37]: 88.7%
viability, T/C [38]: 82.8%
viability, T/C [39]: 71%
viability, T/C [40]: 19.3%
viability, T/C [41]: 13.2%
viability, T/C [42]: 16.1%
viability, T/C [43]: 79.7%
viability, T/C [44]: 90.3%
viability, T/C [45]: 74.7%
viability, T/C [46]: 19.8%
viability, T/C [47]: 12.3%
viability, T/C [48]: 15.3%
viability, T/C [49]: 97.6%
viability, T/C [50]: 93.9%
viability, T/C [51]: 71.5%
viability, T/C [52]: 17.6%
viability, T/C [53]: 11.3%
viability, T/C [54]: 14.8%
viability, T/C [55]: 85%
viability, T/C [56]: 81.6%
viability, T/C [57]: 64.4%
viability, T/C [58]: 16.2%
viability, T/C [59]: 12.3%
viability, T/C [60]: 16.7%

Nc1ccccc1NC(=O)c1ccc(CNC(=O)OCc2cccnc2)cc1 + NC1CCC(NC2CC2c2ccccc2)CC1
IC50 (second compound 0.1 µM): 321 nM
IC50 (second compound 0.316 µM): 389 nM
IC50 (second compound 1 µM): 342 nM
IC50 (second compound 3.16 µM): 293 nM
IC50 (second compound 10 µM): 334 nM
viability, T/C [1]: 104%
viability, T/C [2]: 107%
viability, T/C [3]: 86.8%
viability, T/C [4]: 55.1%
viability, T/C [5]: 9.73%
viability, T/C [6]: 0.31%
viability, T/C [7]: 103%
viability, T/C [8]: 99%
viability, T/C [9]: 88.7%
viability, T/C [10]: 62.8%
viability, T/C [11]: 11.8%
viability, T/C [12]: 0.34%
viability, T/C [13]: 98.7%
viability, T/C [14]: 101%
viability, T/C [15]: 84.4%
viability, T/C [16]: 57%
viability, T/C [17]: 12.4%
viability, T/C [18]: 0.26%
viability, T/C [19]: 102%
viability, T/C [20]: 101%
viability, T/C [21]: 80.4%
viability, T/C [22]: 52.7%
viability, T/C [23]: 10.7%
viability, T/C [24]: 0.24%
viability, T/C [25]: 96.8%
viability, T/C [26]: 98%
viability, T/C [27]: 78.2%
viability, T/C [28]: 58.6%
viability, T/C [29]: 10.2%
viability, T/C [30]: 0.35%

From PubChem BioAssay AID1918937 (Molecular Pharmacology Branch, DTP, NCI, 2023)
